Experimental data as given in the pKa sets of Baltruschat and Czodrowski (2020).

| SMILES | pKa |
| --- | --- |
| CN1c2ccc(C#N)cc2N=C(c2ccc(C(=O)[O-])c(F)c2)c2cc3c(cc21)C(C)(C)CCC3(C)C | 3.4 |
| O=C([O-])c1ccccc1Nc1ccc(CCc2ccc(Cl)c(Cl)c2)cc1 | 4.39 |
| N#Cc1ncc2cc(COc3ccc(C(=O)[O-])cc3)n(CCC3CCCCC3)c2n1 | 4.2 |
| Cc1nc(-n2ccc([O-])cc2=O)sc1C(=O)NCc1ccccc1 | 5.2 |
| CNc1nc2ccccc2n(C)c1=O | 4.25 |
| C/C(=C\c1ccccn1)[C@@H]1C[C@@H]2O[C@]2(C)CCC[C@H](C)[C@H](O)[C@@H](C)C(=O)C(C)(C)[C@@H](O)CC(=O)O1 | 5 |
| Cn1c(N)nc2ccccc2c1=O | 5.2 |
| CCOCC(=O)N1CCC(CNc2nc3c(s2)CCOc2ccc(F)cc2-3)CC1 | 3.7 |
| C[NH+](C)CC1CCc2cc(NC(=O)c3ccc(-c4ccc(F)cc4)cc3)ccc2C1 (stereo not drawn) | 9.1 |
| CCN(Cc1ccccc1)c1ccccc1 | 5.8 |
| CCc1ccc(-c2cnc(C)nc2NC2CCCC2)cc1 | 6.8 |
| C[C@@H](NC(=O)c1cc(C(=O)N[C@@H](Cc2ccccc2)[C@H](O)C[NH2+]C2CC2)cc(N(C)S(C)(=O)=O)c1)c1ccc(F)cc1 | 7.7 |
| COc1cc(CN(CC(=O)NCc2ccccc2Cl)S(=O)(=O)c2ccc(CN3CC[NH+](C)CC3)cc2)ccc1OCC(C)C | 7.17 |
| COc1ccc(C#CC(C)(C)[NH3+])cc1C(=O)c1ccc(Nc2ccc(F)cc2F)cc1 | 8.1 |
| NC1=[NH+]c2ccccc2CC1 | 9.55 |
| Cn1c(=O)n(NS(C)(=O)=O)c(=O)c2ccc(Cl)cc21 | 6.8 |
| O=C(Nc1cccc2cnccc12)c1ccc(-c2ccccc2)cc1 | 4.1 |
| CC(C)(C)OC(=O)N1CCC(C(=O)NS(=O)(=O)c2c(Cl)sc(Cl)c2Br)CC1 | 2.1 |
| COc1ccc(OC)c(CNc2ccc3nc(N)nc(N)c3c2Cl)c1 | 7.1 |
| CN1C(=O)N(C[C@H](C(=O)NO)[C@@H](CC2CCCC2)C(=O)N2CCCCC2)C(=O)C1(C)C | 9.01 |
| CS(=O)(=O)c1ccc(-c2nc3c(c(=O)[nH]2)COCC3)cc1 | 7.31 |

remark: another data set of the same source

| SMILES | pKa |
| --- | --- |
| COc1ccc(C2=C([O-])c3ccccc3C2=O)cc1 | 4.1 |
| Cc1cc(C)nc(N2CCC3(CCCC(=O)N3Cc3cccc4[nH]ccc34)CC2)n1 | 4.4 |
| O=C(Nc1nnc(-c2cccs2)o1)c1cccc(C(F)(F)F)c1 | 5.7 |
| O=c1[nH]c2cc(-c3ccc(F)cc3)ccc2cc1[O-] | 8.1 |
| O=C1N(Cc2ccccc2)CCCC12CCN(c1cnc3ccccc3n1)CC2 | 3.6 |
| C1=C(c2cccc3ccccc23)N2CC[NH+]=C2c2ccccc21 | 10.3 |
| COc1cccc(-c2cccc(CCC3(C)CC(=O)N(C)C(N)=[NH+]3)c2)c1 (stereo not drawn) | 9.4 |
| Cc1cc(C)nc(N2CCC3(CCCN(Cc4ccccc4-c4nc(C)no4)C3=O)CC2)n1 | 4.8 |
| CS(=O)(=O)c1ccc(-c2cnc(N)c(-c3ccc(C(F)(F)F)nc3)c2)cc1 | 4.8 |
| CC(c1cc2ccccc2s1)N(O)C(N)=O (stereo not drawn) | 10.2 |
| COC(=O)/C=C/C(=O)[O-] | 2.9 |
| Cc1cc(C)nc(N2CCC3(CCCN(Cc4cn(C)c5ccccc45)C3=O)CC2)n1 | 4.7 |
| CC(=O)Nc1cccc(Nc2nc(Nc3ccccc3)n3ncc(C#N)c3n2)c1 | 9.7 |
| COc1cccc(-c2cnc(N)c(-c3ccc(C(N)=O)cc3)c2)c1 | 5.3 |
| N#Cc1csc(NC(=O)Nc2ccc(Cl)c(Cl)c2)n1 | 8.3 |
| Fc1ccccc1C1=Cc2ccccc2C2=[NH+]CCN12 | 10.2 |
| Nc1nc(-c2ccccc2)cc2ccccc12 | 6.9 |
| O=C(/C=C/c1ccc(Br)cc1)N1CC[NH+](Cc2ccccc2)CC1 | 6.1 |
| COc1cccc(-c2nnc3n(Cc4ccccc4Cl)c(=O)c4ccccc4n23)c1O | 8.4 |
| O=C1CN(c2ccccc2)C(=O)N1 | 8.3 |
| COC(=O)c1ccc2[nH]cc(CN3CCCC4(CCN(c5nc(C)cc(C)n5)CC4)C3=O)c2c1 | 4.8 |
| CCc1ccc(-c2cn3c([nH+]2)SCC3)cc1 | 4.8 |
| O=S(=O)(c1ccccc1)n1cc(-c2cccc3nccn23)c2ccccc21 | 6.4 |
| O=C(NO)C1c2ccccc2-c2ccccc21 | 8.7 |
| Cc1cc(C)nc(N2CCC3(CCCN(Cc4nn(C)nc4-c4ccccc4)C3=O)CC2)n1 | 4.7 |

| SMILES | pKa |
| --- | --- |
| O=Cc1cc(Br)cc(Br)c1O | 5.3 |
| O=C(Nc1nnc(-c2ccc(F)cc2)o1)c1ccc(Cl)s1 | 5.8 |
| O=c1[nH]c2ccc(-c3ccc(F)cc3)cc2cc1[O-] | 8.2 |
| N#Cc1cc(C[NH+]2CCC(Nc3ncnc4sc(Cl)cc34)CC2)ccc1F | 7 |
| COc1ccc2c(c1)CN(C(=O)CC[NH+]1CCC(Cc3ccccc3)CC1)CCS2 | 8.3 |
| Fc1ccc2c(/C=C/c3cccnc3)c[nH]c2c1 | 5.3 |
| CCC1(c2ccccc2)C(=O)NC(=O)N(C)C1=O (stereo not drawn) | 7.6 |
| CC(C(=O)[O-])c1ccc2c(c1)Cc1ccccc1-2 (stereo not drawn) | 4.3 |
| O=c1[nH]c2cc(C(F)(F)F)ccc2n1Cc1cc(Cl)ccc1O | 9.75 |
| COc1ccc2[nH]cc(CN3CCCC4(CCN(c5nc(C)cc(C)n5)CC4)C3=O)c2c1 | 4.65 |
| O=C([O-])CSc1ncnc2cc(-c3ccc(Br)cc3)sc12 | 3.5 |
| Cc1cc(N)nc2ccccc12 | 7.9 |
| CNC(=O)c1ccc(Oc2ccc3c(c2)CC[NH+](C2CCC2)CC3)nc1 | 8.6 |
| O=C(CSc1nccn1C1CCCC1)Nc1ccc(C(F)(F)F)cc1 | 5.1 |
| CCc1ncnc(NC(CC)c2ccc(Oc3ccc(F)cc3)cc2)c1Br (stereo not drawn) | 4.3 |
| COc1cccc2[nH]cc(-c3ccnc(N)n3)c12 | 5.52 |
| N#Cc1c(-c2ccccc2)nc(SCc2ccccc2)[nH]c1=O | 4.5 |
| Cc1ccc(NC(=O)c2ccccc2)cc1Nc1nccc(-c2cccnc2)n1 | 3.9 |
| Cc1ccc(NC(=O)c2cccc(C(C)(C)C#N)c2)cc1Nc1ccc2ncn(C)c(=O)c2c1 | 3.6 |
| CC(=O)Nc1ccc(Nc2ncnc3c2c(-c2ccccc2)cn3-c2ccccc2)cc1 | 3.9 |
| COc1ccc(N2CCOCC2)c2sc(NC(=O)N3CCC(C)(O)CC3)nc12 | 9.4 |
| CCN(CC)c1ncnc2c1cnn2C | 4.2 |
| COc1cc2c(cc1OC)CN(c1cc(N)c3cc(OC)c(OC)cc3[nH+]1)CC2 | 8.9 |
| Clc1ccc2c(c1)[NH+]=C(N1CCCCC1)c1ccccc1N2 | 7.2 |
| c1ccc(-c2nc3n(c2-c2ccccc2)CCS3)cc1 | 4.8 |

| SMILES | pKa |
| --- | --- |
| Ic1cccc(-c2nn[n-]n2)c1 | 3.7 |
| O=C1N(Cc2c[nH]c3ccccc23)CCCC12CCN(c1cnc3ccccc3n1)CC2 | 3.9 |
| c1ccc(Nc2nc(NC3CCCCC3)nc3ccccc23)cc1 | 8 |
| C1=CN2CC(c3ccccc3)[NH+]=C2S1 (stereo not drawn) | 8.7 |
| O=C(NO)C1c2ccccc2Oc2ccccc21 | 8.4 |
| COc1cc(Nc2ccccc2C(=O)[O-])cc(OC)c1 | 4 |
| COc1ccc(-c2nc(Nc3ccc(F)cc3F)c3ccccc3n2)cc1OC | 5.2 |
| Nc1ccc(-c2cc3ccccc3oc2=O)cc1 | 3.9 |
| c1ccc(-c2cnc3c(-c4ccnc5ccccc45)cnn3c2)cc1 | 4.9 |
| C[NH+](C)CCSc1nc2ccccc2cc1-c1ccccc1 | 8.4 |
| COc1ccc(Nc2ccc3ccccc3n2)cc1 | 6.5 |
| CC(=O)n1cc(C2=C([O-])CC(C)(C)CC2=O)c2ccccc21 | 5.2 |
| N#Cc1cccc(Nc2ccccc2C(=O)[O-])c1 | 3.9 |
| Nc1ncnc2ccc(-c3cccc(F)c3)nc12 | 4.7 |
| COC(=O)Cn1c(C[NH+]2CCC(Cc3ccccc3)CC2)nc2c1c(=O)n(C)c(=O)n2C | 6 |
| O=S(=O)(Nc1cc(F)ccc1F)c1ccc2[nH]c3c(c2c1)CCCC3 | 7.3 |
| Cc1cc(C)c2cc(C(=O)NC3CC[NH+](C)CC3)[nH]c2c1 | 8.5 |
| O=C(Nc1ccc(F)c(Cl)c1)C1CCN(c2ncccn2)CC1 | 3.8 |
| O=C([O-])COc1ccc2c(c1)Cc1ccccc1-2 | 3 |
| Nc1ncnc2ccc(-c3ccnc(F)c3)nc12 | 4.5 |
| CN1C(=O)Cn2cc(C(=O)NCc3ccc(Cl)cc3)c(=O)c3cc(C[NH+]4CCOCC4)cc1c32 | 6.2 |
| Cc1[nH]c2ccccc2c1CC[NH2+]Cc1ccc(CCC(=O)N=O)cc1 | 8.6 |
| O=C1N(Cc2cccc3[nH]ccc23)CCCC12CCN(c1cnc3ccccc3n1)CC2 | 3.75 |
| Cn1cc(C(=O)[O-])c(=O)c2ccccc21 | 6.5 |
| Cc1ccc2nc(N)ccc2c1 | 7.6 |

| SMILES | pKa |
| --- | --- |
| COc1ccccc1S(=O)(=O)Nc1ccc2c(c1)CN(C)C(=O)N2 | 8.65 |
| CC(C(=O)[O-])c1ccc2c(c1)C(=O)c1ccccc1CS2 (stereo not drawn) | 4.1 |
| O=C(Cc1ccccc1)N1CCCC12CCN(c1cnc3ccccc3n1)CC2 | 3.6 |
| O=c1ccc2nc3ccc(O)cc3oc-2c1 | 5.8 |
| N#Cc1c(-c2ccc(Cl)cc2)nc(SCC(=O)Nc2ccc(Cl)cc2)[nH]c1=O | 3.7 |
| Nc1cccc2c1C(=O)N(C1CCC(=O)NC1=O)C2=O (stereo not drawn) | 10.8 |
| O=C(Nc1ccc(Cl)cc1)NS(=O)(=O)c1ccc(Cl)cc1 | 3.4 |
| O=C1CCCC2(CCN(c3cnc4ccccc4n3)CC2)N1Cc1c[nH]c2ccccc12 | 3.3 |
| Cc1ccc(C)c(CN2C(=O)CCCC23CCN(c2cnc4ccccc4n2)CC3)c1 | 3.4 |
| O=C([O-])c1ccccc1Nc1cc(C(F)(F)F)cc(C(F)(F)F)c1 | 3.9 |
| CC(C)Oc1ccc(Cc2ccc(NC3=[NH+]CCN3)cc2)cc1 | 10.5 |
| COc1ccc(-c2cnc3c(-c4cccc5ncccc45)cnn3c2)cc1 | 4.4 |
| NC(=O)c1cccc(-c2cc(Nc3ccc(OC(F)(F)F)cc3)ncn2)c1 | 4 |
| CCc1ccc(/C=C2/SC(=S)[N-]C2=O)cc1 | 5.8 |
| C=CC(=O)Nc1cccc(Nc2nc(Nc3ccc(OCCOC)cc3)ncc2F)c1 | 4.8 |
| COc1ccc2nccc(-n3cc4c(n3)CCC(NC(=O)c3ccc5c(c3)NC(=O)CS5)C4)c2n1 (stereo not drawn) | 3.8 |
| O=C([O-])c1ccc(NCc2cccc(Oc3ccccc3)c2)cn1 | 4.45 |
| Cc1ccc(C)n1-c1ccc(SCC(=O)[O-])cc1 | 3.5 |
| Cc1ccc(OC(C)(C)C(=O)N[C@@H](C)[C@@H](Cc2ccc(OCCF)cc2)c2cccc(C#N)c2)nc1 | 2.7 |
| O=C(Nc1nccs1)C(CC1CCCC1)c1ccc(Cl)cc1 (stereo not drawn) | 10.5 |
| COc1ccc(N)c2ccccc12 | 4.9 |
| COc1ccc(Br)c(C=O)c1O | 7.5 |
